Calls of active or inactive are those of the source.
Experiments:
Bcl-2-related protein A1 [1] = molecular target: T1, Bcl-2-related protein A1 (Mus musculus, UniProt Q07440); test: Bfl-1 binding inhibitors, SAR follow-up, biochemical, fluorescence polarization (AID 1070)
T1 sequence (Q07440 whole entry): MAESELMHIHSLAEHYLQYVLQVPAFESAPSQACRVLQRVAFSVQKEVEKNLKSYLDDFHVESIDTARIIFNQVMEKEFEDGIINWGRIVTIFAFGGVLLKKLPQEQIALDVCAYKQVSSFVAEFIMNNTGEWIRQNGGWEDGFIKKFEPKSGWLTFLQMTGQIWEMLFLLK

Bcl-2-related protein A1 [2] = molecular target: T1, Bcl-2-related protein A1; test: Bfl-1 inhibitors blocking BH3 peptide binding, confirmation, biochemical, TR-FRET, mouse Bfl-1 (AID 621);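 note: TR-FRET binding of GST-Bfl-1 to FITC-labelled Bid peptide via terbium antibody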
[3] = molecular target: Peroxisome proliferator-activated receptor gamma/Nuclear receptor coactivator 3 (Homo sapiens, UniProt P37231); test: (§1) TR-FRET dose response biochemical High Throughput Screening assay for agonists of the steroid receptor coactivator 3 (SRC-3) recruitment by the peroxisome proliferator-activated receptor gamma (PPAR gamma): non-selective agonists. [Related pubchem assays: 1301 (Confirmation screen.), 1048 (Primary screen.)]; assay type: functional
Cysteine protease ATG4B = Cysteine protease ATG4B (Homo sapiens, UniProt Q9Y4P1); assay type: functional;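 note: Fluorescence-based dose-response confirmation assay measuring inhibition of ATG4B activity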
NS3 = NS3 (Hepatitis C virus, UniProt A3EZJ3); test: PubChem AID 2173; parameters: species or system Hepacivirus hominis
[4] = molecular target: Peroxisome proliferator-activated receptor gamma/Nuclear receptor coactivator 1 (Homo sapiens, UniProt P37231); test: as §1, with “1 (SRC-1)” for “3 (SRC-3)”, “assays (depositor defined):AID1300, AID1808, AID504735, AID631]” for “assays: 1301 (Confirmation screen.), 1048 (Primary screen.)]”; assay type: protein assay
[5] = molecular target: DNA (cytosine-5)-methyltransferase 1 (Homo sapiens, UniProt P26358); test: DNMT1 methyltransferase inhibitors, confirmation, biochemical, fluorescent molecular beacon (AID 602386); assay type: functional
[6] = molecular target: Peroxisome proliferator-activated receptor gamma/Nuclear receptor coactivator 2 (Homo sapiens, UniProt P37231); test: TR-FRET dose response biochemical High Throughput Screening assay for agonists of the steroid receptor coactivator 2 (SRC-2) recruitment by the peroxisome proliferator-activated receptor gamma (PPAR gamma): non-selective agonists. [Related pubchem assays: 1297, 1032 ]; assay type: functional
Phospholipase A2 = Phospholipase A2 (Homo sapiens, UniProt P04054); assay type: functional;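 note: confirmatory dose-response counterscreen on phospholipase A2, testing hits that came from an ultra-high-throughput screen for ATG4B inhibitors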
[7] = Luminescence Cell-Based Dose Confirmation HTS to Identify Inhibitors of Polyadenylation.; assay type: functional
[8] = growth suppression of PTEN-null colon cells, dose response, cell-based, HCT116 PTEN knockout (AID 1047); assay type: functional;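 note: HCT116 colon tumor cells with PTEN knocked out; cells exposed to compound for 60 hours before readout; potency for loss of cell viability measured by luminescence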
[9] = growth suppression of beta-catenin-knockout colon cells, dose response, cell-based, HCT116, human colon tumor (AID 1045); assay type: functional;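 note: HCT116 colon tumor cells with beta catenin knocked out; cells exposed to compound for 60 hours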
[10] = cytotoxicity in KRAS-transformed pancreatic duct cells, primary screen, cell-based, fluorescence, HTS (AID 431); assay type: functional; conditions: Homo sapiens;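 note: cell line used: HPDE-C7K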
[11] = cytotoxicity in HPDE-C7 cells, cell-based, fluorescence, HTS (AID 430); assay type: functional; conditions: Homo sapiens
[12] = molecular target: FAD-linked sulfhydryl oxidase ALR (Homo sapiens, UniProt P55789); test: inhibitors of human ALR sulfhydryl oxidase, dose response, biochemical, H2O2 detection, luminescence, cherry-pick (AID 493248)
[13] = molecular target: Neuropeptide Y receptor type 1 (Homo sapiens, UniProt P25929); test: Fluorescence-based counterscreen for agonists of NPY-Y2: cell-based high-throughput dose response assay for agonists of NPY-Y1.; assay type: functional
Streptokinase A = molecular target: T2, Streptokinase A (Streptococcus pyogenes serotype M1, UniProt P10520); test: S. pyogenes streptokinase expression inhibitors, potency, dose response, plasminogen activation absorbance, OD405 (AID 1914); assay type: functional, Streptococcus pyogenes M1 GAS;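 note: secreted streptokinase activity via plasminogen activation per viability signal from cell pellet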
T2 sequence (P10520 whole entry): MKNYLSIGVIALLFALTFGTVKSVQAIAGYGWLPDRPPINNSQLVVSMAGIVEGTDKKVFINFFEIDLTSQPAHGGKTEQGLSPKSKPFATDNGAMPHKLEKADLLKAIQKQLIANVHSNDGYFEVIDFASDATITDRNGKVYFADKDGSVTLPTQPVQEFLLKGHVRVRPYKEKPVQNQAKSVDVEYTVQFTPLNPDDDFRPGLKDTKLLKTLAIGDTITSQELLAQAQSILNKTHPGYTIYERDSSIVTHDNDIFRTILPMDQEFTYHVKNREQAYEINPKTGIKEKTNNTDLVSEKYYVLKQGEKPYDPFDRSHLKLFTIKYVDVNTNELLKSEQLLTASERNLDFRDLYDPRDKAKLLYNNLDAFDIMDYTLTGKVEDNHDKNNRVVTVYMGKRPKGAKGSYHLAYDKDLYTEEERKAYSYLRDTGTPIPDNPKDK

cells [14] = assay type: functional, cell-based
INS1 = test: beta cell apoptosis inhibitors, cytokine rescue, dose response, luminescence, retest (AID 449756); assay type: functional, cell-based; conditions: Rattus norvegicus;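 note: cell death triggered by IL-1 beta plus TNF-alpha plus IFN-gamma mixture; protective hits raise ATP signal compared with cytokine alone wells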
HEK293 = test: Fluorescence-based counterscreen for potentiators or agonists of NPY-Y2: cell-based high-throughput dose response assay to identify inhibitors of cyclic nucleotide gated ion channel (CNGC) activity. In this assay, the parental HEK293 cell line transfected with a cyclic-nucleotide gated ion channel (CNGC)-based cAMP sensor is used to measure inhibition of isoproterenol-induced CNGC activity by test compound.; assay type: functional; conditions: Homo sapiens
[15] = molecular target: Neuropeptide Y receptor type 2 (Homo sapiens, UniProt P49146); test: Fluorescence-based cell-based high-throughput dose response assay for agonists of NPY-Y2. [Related pubchem assays: 1703 (Screening assay (CNGC inhibitors).), 1359 (Screening assay (NPY-Y2 potentiators or agonists).), 1304 (Screening assay (NPY-Y1 potentiators or agonists).), 1710 (Screening assay (NPY-Y2 agonists).), 1791 (Summary AID.)]; assay type: functional
cells [16] = assay type: functional, cell-based; remark: listed apart in the source
Streptococcus = test: Group A Streptococcus viability loss, dose response, counter-screen for streptokinase expression inhibitor project, luminescence, BacTiterGlo (AID 1915); assay type: functional, organism-based;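 note: potency for reduction of bacterial viability or growth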
BJ = test: cytotoxicity toward Ras-transformed BJeLR fibroblasts, dose response, cell-based, alamar blue fluorescence, cherrypicked samples (AID 2631); assay type: functional; conditions: Homo sapiens;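 note: confirmatory dose-response assay in RAS-dependent BJ fibroblasts engineered with TERT, LT and ST, with cytotoxicity read by fluorescence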
[17] = molecular target: T3, DNA repair protein RAD52 homolog (Homo sapiens, UniProt P43351); assay type: functional, biochemical
T3 sequence (P43351 whole entry): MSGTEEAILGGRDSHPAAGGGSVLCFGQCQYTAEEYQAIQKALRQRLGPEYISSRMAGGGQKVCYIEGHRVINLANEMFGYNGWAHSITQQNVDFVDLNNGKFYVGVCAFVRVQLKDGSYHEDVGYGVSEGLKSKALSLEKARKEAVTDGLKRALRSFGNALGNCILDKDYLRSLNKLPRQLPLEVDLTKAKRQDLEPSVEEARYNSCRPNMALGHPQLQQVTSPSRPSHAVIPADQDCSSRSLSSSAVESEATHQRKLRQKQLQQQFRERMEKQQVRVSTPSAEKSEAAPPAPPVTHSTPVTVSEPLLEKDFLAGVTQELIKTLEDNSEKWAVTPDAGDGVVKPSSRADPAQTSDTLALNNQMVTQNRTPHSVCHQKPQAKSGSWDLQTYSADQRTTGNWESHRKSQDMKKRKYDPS

[18] = test system: Streptococcus sp. 'group A'; test: growth inhibition of control SK(-) GAS strain, dose response, counter-screen for streptokinase expression inhibitor project, luminescence, kanamycin, BacTiterGlo, confirmation (AID 1900); assay type: functional, organism-based

Sequence of NS3 (A3EZJ3 whole entry): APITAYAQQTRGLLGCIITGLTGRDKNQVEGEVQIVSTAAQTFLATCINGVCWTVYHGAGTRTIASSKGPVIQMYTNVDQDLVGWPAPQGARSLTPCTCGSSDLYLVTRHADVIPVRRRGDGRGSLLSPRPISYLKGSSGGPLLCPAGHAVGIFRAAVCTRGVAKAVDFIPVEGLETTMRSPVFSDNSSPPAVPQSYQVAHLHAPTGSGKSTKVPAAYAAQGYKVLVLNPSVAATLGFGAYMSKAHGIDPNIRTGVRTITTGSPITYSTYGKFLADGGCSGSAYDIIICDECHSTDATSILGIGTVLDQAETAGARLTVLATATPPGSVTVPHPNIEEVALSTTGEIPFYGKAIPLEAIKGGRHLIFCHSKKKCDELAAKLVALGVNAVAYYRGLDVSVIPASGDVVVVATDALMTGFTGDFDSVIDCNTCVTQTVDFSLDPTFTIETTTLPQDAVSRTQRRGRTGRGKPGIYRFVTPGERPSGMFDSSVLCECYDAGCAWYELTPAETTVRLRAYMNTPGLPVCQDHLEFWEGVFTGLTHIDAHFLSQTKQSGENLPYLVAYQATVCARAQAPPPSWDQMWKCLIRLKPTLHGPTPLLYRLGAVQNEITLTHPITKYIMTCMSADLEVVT
Sequence of Neuropeptide Y receptor type 1 (P25929 whole entry): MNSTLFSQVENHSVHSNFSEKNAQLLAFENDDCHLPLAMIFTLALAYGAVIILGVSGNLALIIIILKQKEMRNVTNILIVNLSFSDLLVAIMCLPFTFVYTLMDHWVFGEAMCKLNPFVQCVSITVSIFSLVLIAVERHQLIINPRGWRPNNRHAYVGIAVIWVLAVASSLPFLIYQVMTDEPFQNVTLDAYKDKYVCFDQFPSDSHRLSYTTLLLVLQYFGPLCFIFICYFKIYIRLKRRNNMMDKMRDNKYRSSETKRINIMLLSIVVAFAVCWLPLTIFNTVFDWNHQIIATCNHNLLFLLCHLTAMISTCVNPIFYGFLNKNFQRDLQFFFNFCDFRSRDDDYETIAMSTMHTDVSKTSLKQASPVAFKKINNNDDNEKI
Sequence of Peroxisome proliferator-activated receptor gamma/Nuclear receptor coactivator 2 (P37231 whole entry): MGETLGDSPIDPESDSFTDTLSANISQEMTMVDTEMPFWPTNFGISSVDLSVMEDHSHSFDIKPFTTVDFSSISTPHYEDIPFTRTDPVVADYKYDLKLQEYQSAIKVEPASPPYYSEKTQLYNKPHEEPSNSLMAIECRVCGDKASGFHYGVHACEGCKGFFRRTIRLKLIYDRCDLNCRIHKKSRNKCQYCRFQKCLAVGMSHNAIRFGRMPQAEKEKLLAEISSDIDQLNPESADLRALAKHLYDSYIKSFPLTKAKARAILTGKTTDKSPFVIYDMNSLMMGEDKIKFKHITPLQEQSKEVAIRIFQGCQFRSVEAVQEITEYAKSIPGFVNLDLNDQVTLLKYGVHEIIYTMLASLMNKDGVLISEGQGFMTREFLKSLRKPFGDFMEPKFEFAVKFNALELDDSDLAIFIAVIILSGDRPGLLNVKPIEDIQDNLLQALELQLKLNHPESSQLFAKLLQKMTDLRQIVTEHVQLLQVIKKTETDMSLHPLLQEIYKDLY
Sequence of Peroxisome proliferator-activated receptor gamma/Nuclear receptor coactivator 2 (Q15596 whole entry, further chain): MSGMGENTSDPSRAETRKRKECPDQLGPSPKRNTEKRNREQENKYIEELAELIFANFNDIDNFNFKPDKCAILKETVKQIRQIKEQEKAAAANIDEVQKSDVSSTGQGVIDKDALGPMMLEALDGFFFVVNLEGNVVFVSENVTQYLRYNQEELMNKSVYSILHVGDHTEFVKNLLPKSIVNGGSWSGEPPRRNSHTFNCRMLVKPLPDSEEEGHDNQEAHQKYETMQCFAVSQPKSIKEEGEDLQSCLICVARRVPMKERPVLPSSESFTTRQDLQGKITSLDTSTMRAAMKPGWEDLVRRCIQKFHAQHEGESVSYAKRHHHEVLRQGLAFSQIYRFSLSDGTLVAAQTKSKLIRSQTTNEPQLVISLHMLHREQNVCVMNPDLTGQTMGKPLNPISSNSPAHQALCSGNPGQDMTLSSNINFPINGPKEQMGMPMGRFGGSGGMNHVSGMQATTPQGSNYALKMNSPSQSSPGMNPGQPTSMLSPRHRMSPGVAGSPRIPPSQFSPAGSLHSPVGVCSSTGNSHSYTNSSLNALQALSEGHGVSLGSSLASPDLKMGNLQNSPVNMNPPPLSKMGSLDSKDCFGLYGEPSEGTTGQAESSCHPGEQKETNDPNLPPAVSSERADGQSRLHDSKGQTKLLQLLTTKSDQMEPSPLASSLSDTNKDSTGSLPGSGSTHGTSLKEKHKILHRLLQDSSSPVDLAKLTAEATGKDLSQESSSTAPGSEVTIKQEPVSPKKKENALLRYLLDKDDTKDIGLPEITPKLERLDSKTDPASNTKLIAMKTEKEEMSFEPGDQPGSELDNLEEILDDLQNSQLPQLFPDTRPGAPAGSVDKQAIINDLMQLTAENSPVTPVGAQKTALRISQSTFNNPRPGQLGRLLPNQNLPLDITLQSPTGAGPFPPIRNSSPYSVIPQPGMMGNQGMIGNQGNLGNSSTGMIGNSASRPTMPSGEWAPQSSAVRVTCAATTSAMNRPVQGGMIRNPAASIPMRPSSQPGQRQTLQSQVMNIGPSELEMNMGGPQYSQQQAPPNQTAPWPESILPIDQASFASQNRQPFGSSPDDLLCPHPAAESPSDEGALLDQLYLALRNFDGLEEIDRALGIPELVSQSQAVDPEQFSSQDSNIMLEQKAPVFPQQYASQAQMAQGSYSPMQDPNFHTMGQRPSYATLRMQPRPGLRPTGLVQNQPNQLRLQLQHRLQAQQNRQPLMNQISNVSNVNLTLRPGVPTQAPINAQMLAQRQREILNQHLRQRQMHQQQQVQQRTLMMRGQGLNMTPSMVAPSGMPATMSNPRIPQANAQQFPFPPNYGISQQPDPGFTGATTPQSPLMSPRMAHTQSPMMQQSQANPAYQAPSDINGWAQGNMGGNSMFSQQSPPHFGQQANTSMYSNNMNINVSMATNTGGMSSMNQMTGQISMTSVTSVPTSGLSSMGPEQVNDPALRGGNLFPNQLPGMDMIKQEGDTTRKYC
Sequence of Peroxisome proliferator-activated receptor gamma/Nuclear receptor coactivator 1 (P37231 whole entry): as the sequence (P37231 whole entry) above
Sequence of Peroxisome proliferator-activated receptor gamma/Nuclear receptor coactivator 1 (Q15788 whole entry, further chain): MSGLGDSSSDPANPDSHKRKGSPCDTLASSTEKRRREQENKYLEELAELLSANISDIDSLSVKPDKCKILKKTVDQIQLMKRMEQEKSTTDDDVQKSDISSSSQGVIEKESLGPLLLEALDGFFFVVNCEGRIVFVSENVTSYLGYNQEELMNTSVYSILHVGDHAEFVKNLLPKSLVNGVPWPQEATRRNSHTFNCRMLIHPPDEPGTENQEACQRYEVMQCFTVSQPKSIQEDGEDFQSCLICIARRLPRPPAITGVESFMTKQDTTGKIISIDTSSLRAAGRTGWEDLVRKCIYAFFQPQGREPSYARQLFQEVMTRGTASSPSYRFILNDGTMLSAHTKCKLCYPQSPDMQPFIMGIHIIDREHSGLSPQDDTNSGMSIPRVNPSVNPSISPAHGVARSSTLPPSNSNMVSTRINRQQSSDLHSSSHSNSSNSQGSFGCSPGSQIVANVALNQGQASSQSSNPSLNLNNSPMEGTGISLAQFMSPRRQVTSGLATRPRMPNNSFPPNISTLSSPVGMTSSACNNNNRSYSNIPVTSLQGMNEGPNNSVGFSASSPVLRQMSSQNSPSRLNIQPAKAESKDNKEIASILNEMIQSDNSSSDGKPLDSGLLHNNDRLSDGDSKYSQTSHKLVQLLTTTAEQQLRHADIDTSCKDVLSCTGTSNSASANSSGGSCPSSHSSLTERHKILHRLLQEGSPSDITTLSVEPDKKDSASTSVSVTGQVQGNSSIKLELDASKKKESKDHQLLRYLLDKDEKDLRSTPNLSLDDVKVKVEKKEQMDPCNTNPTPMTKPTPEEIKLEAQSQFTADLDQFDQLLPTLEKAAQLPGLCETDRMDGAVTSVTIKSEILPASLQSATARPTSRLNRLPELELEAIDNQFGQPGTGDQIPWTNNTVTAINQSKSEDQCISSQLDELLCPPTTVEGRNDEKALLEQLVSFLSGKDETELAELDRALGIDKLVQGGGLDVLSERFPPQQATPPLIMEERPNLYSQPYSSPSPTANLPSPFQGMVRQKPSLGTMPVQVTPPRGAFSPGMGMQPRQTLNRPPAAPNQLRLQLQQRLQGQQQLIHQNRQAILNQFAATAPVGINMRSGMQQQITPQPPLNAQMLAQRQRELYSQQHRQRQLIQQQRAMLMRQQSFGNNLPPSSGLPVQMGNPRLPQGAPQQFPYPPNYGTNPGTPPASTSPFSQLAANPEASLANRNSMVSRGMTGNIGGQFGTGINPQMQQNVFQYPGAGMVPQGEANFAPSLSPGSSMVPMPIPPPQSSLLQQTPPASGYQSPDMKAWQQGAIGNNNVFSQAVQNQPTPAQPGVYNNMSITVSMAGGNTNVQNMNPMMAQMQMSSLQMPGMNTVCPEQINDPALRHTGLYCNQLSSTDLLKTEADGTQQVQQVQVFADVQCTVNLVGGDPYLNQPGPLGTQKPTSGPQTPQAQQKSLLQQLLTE
Sequence of Phospholipase A2 (P04054 whole entry): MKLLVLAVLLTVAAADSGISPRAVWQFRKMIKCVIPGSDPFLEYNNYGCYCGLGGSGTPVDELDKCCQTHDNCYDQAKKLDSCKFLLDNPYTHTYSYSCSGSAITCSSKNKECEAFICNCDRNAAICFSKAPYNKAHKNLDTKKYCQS

## C[C@@H]1CN(C2=C(Cl)C(=O)N(c3ccc(Cl)c(Cl)c3)C2=O)CCN1
Bcl-2-related protein A1 [1]
  IC50: 1.16 µM (active)
Bcl-2-related protein A1 [2]
  IC50: 1.03 µM (active)

## O=C1NN(c2ccccc2)C(=O)/C1=C/c1ccc(Sc2cccc3ccccc23)o1
[3]
  EC50: > 79.4 µM (not active)
Cysteine protease ATG4B
  IC50: 8.56 µM (active)
NS3
  IC50: 5.55 µM (active)
[4]
  EC50: > 79.4 µM (inactive)
[5]
  IC50: 7.12 µM (active)
[6]
  EC50: 92.2 µM (not active)
Phospholipase A2
  IC50: 8.08 µM (active)

## O=C(O)c1ccc(SCc2cnc(Cl)s2)cc1
[7]
  EC50: > 120 µM (not active)

## CCN(CCNC(=O)C1CCN(Cc2nc(-c3cccc(Cl)c3)oc2C)CC1)c1ccccc1
[8]
  EC50: 13.3 µM (active)
[9]
  EC50: 10.7 µM (active)
[10]
  EC50: > 20 µM (not active)
[11]
  EC50: > 20 µM (not active)
[12]
  AC50: 0.024 µM (active)

## Cc1sc2cc3c(c(C(=O)c4ccccc4)[n+]2c1C)-c1cccc2cccc-3c12
[13]
  EC50: 8.19 µM (active)
Streptokinase A
  EC50: 31.9 µM (active)
Cells [14]
  EC50: > 350 µM (not active)
INS1
  AC50: 1.91 µM (active)
HEK293
  EC50: 12.3 µM (not active)
[15]
  EC50: 11.5 µM (not active)
Cells [16]
  EC50: > 350 µM (not active)
Streptococcus
  EC50: 23.5 µM (active)
BJ
  EC50: 30.6 µM (active)
[17]
  AC50: 1.43 µM (active)
[18]
  EC50: 6.52 µM (active)

From ChEMBL document CHEMBL1201862, “PubChem BioAssay data set” (2004)
